# Results as given in publication PMC12347391, “Sulforaphane-Rich Broccoli Sprout Extract Promotes Hair Regrowth in an Androgenetic Alopecia Mouse Model via Enhanced Dihydrotestosterone Metabolism” (International Journal of Molecular Sciences, 2025).
# Assays:
# β-catenin = test: Western blot of dorsal skin; type: in vivo, C57BL/6J mice; settings: 15 days post-treatment; minoxidil 1% topical, finasteride 1 mg/kg oral
# Description: (§1) To assess protein expression levels in skin and liver tissues, samples were lysed using M-PER^TM Mammalian Protein Extraction Reagent (Thermo Fisher Scientific) supplemented with a 1× working concentration of Xpert Protease Inhibitor Cocktail Solution (GenDEPOT, Barker, TX, USA), which included 50 μM PMSF, 10 μM Pepstatin A, 20 μM Leupeptin, 100 μM Benzamidine, and 50 μM Bestatin. The lysates were incubated on ice for 30 min and centrifuged at 12,000× g for 10 min at 4 °C to remove debris. The supernatants were collected, and total protein concentrations were determined using the Pierce^TM BCA Protein Assay Kit (Thermo Fisher Scientific).
# (§2) Equal amounts of protein (20–30 μg) were loaded onto 10% SDS–polyacrylamide gels and electrophoresed using a Bio-Rad Mini-PROTEAN Tetra System with the Tris–Glycine–SDS running buffer. A pre-stained molecular weight marker (Precision Plus Protein^TM Dual Color Standards, Bio-Rad) was used as a reference. Proteins were then transferred to PVDF membranes (Immobilon®-P, Millipore, Burlington, MA, USA) using the wet transfer method with the Tris–Glycine buffer containing 20% methanol at 0.2 A for 120 min at 4 °C.
# (§3) Membranes were blocked with 5% skim milk in TBST buffer (20 mM Tris–HCl, 150 mM NaCl, 0.2% Tween 20, pH 7.4) for 1 h at room temperature and incubated overnight at 4 °C with one of the following primary antibodies diluted at 1:1000: anti-HSP90 (Santa Cruz Biotechnology, sc-13119, Dallas, TX, USA), anti-β-catenin (Cell Signaling Technology, #8480S, Danvers, MA, USA), anti-Lef-1 (Cell Signaling Technology, #2230S, Danvers, MA, USA), anti-Akr1c21 (Invitrogen, PA5-36572, Carlsbad, CA, USA), or anti-Dhrs9 (MyBioSource, MBS9125625, San Diego, CA, USA). Each antibody was applied to separate membranes to avoid cross-reactivity and ensure target specificity.
# (§4) After primary antibody incubation, membranes were washed four times for 10 min each with TBST at 50 rpm on a shaker, followed by incubation with HRP-conjugated secondary antibodies (Thermo Fisher Scientific) diluted 1:3000 for 1 h at room temperature. The membranes were then washed three times for 5 min each with TBST under the same conditions. Protein bands were visualized using the enhanced chemiluminescence (ECL) reagent (Bio-Rad) and imaged using the iBright^TM CL1500 Imaging System (Thermo Fisher Scientific). Densitometric analysis was performed using the software ImageJ (NIH), and band intensities were normalized to HSP90 expression to ensure consistent protein quantification across all samples.
# Lef-1 = test: Western blot of dorsal skin; type: in vivo, C57BL/6J mice; settings: 15 days post-treatment; minoxidil 1% topical, finasteride 1 mg/kg oral; neither significant
# Description: as §1, §2, §3, §4
# DHT = test: Plasma DHT level (ELISA); type: in vivo, C57BL/6J mice; settings: AGA mice; minoxidil 1% topical, finasteride 1 mg/kg oral
# Description: Blood samples were collected in heparinized tubes and centrifuged at 13,000× g for 5 min at 4 °C to isolate plasma. The plasma was stored at −80 °C until analysis for testosterone and DHT concentrations.
# Plasma samples collected after the final dose of once-daily treatments were used to quantify serum testosterone and DHT levels using commercial ELISA kits: the Mouse Testosterone ELISA Kit and Mouse DHT ELISA Kit (LifeSpan BioSciences, Inc., Seattle, WA, USA). All assays were conducted following the manufacturer’s protocols.
# liver tissue = test: Safety observation and liver H&E histology after 15-day treatment; type: in vivo, C57BL/6J mice; settings: mice, oral BSE or finasteride
# [1] = tested on: testosterone-induced AGA mouse model; test: In vivo hair regrowth efficacy; parameters: species or system C57BL/6J mice; settings: finasteride 1 mg/kg oral; for hair regrowth (coverage of the telogen area) / telogen-to-anagen conversion (telogen area transitioning): day 6; for hair regrowth (coverage of the telogen area) / telogen-to-anagen conversion (telogen area transitioning) / anagen area / hair regrowth / increase in hair follicle length compared to the untreated group / increase in hair weight compared to the untreated group: minoxidil 1% topical; for telogen-to-anagen conversion (telogen area transitioning): once daily
# Description: On day 6, dorsal hair was removed from all mice. All mice were anesthetized using 3% isoflurane in 100% oxygen at a flow rate of 0.8 L/min, and the suppression of deep pedal reflexes was confirmed in the mice. Then, the desired dorsal region was shaved using electric clippers, followed by the application of rosin wax. After 2 min, the rosin wax was removed with the help of adhesive tape. The application of rosin wax was repeated one more time to completely remove the few remaining hairs.
# Testosterone-treated mice were then randomly assigned to six groups (n = 6 per group). The first group served as the negative control and only received the vehicle.
# Hair regrowth was visually monitored and photographed on days 0, 3, 6, 9, 12, and 15. Regrowth progression was quantitatively assessed using the software ImageJ (version 1.54p; National Institutes of Health, Bethesda, MD, USA) by measuring the areas corresponding to telogen-phase skin (pink), anagen transition zones (black), and fully covered hair regions. On day 15, the regrown dorsal hair was trimmed and weighed using an analytical balance to assess total hair mass. To evaluate hair follicle length, mice were first anesthetized using 3% isoflurane in 100% oxygen at a flow rate of 0.8 L/min to minimize movement and distress. The dorsal skin area was then cleaned with 70% ethanol to prevent contamination. Using sterile fine-tipped forceps, approximately 5–20 hairs were grasped close to the skin surface and swiftly plucked in the direction of hair growth to minimize follicular damage. Only hair shafts with intact follicular bulbs were selected for analysis. This procedure was repeated at three distinct dorsal sites per animal to obtain a representative sampling of hair regrowth. Finally, the lengths of selected hair follicles were measured microscopically.
# Akr1c21 = test: Western blot of liver tissue; type: in vivo, C57BL/6J mice; settings: 15 days post-treatment, minoxidil 1% topical, finasteride 1 mg/kg oral
# Description: as §1, §2, §3, §4
# Dhrs9 = test: Western blot of liver tissue; type: in vivo, C57BL/6J mice; settings: 15 days post-treatment, minoxidil 1% topical, finasteride 1 mg/kg oral
# Description: as §1, §2, §3, §4
# HaCaT keratinocytes = test: In vitro cell proliferation assay (WST-1)
# HDP cells [2] = test: In vitro scratch wound recovery assay; type: cell-based, human
# Description: No. BA-045855; Sartorius AG, […], Germany). […] Sartorius AG), following the manufacturer's instructions. Detached cells were removed by washing twice with PBS (pH 7.4). […] All treatments were performed in triplicate, including a vehicle control. […] Wound closure was quantified using the Incucyte® Scratch Wound Analysis Software Module, which calculates relative wound density (%) by comparing cell density within the wound area to that of the surrounding monolayer, providing an objective measure of cell migration and proliferation over time.
# HDP cells [3] = test: In vitro cell proliferation assay (WST-1); type: cell-based, human
# [4] = tested on: CCD-986sk dermal fibroblasts; test: In vitro cell proliferation assay (WST-1)
smiles,measurement,setting,value
CC(C)(C)NC(=O)[C@H]1CC[C@H]2[C@@H]3CC[C@H]4NC(=O)C=C[C@]4(C)[C@H]3CC[C@]12C [finasteride],β-catenin expression in dorsal skin,β-catenin,significantly restored
same,Lef-1 expression in dorsal skin,Lef-1,no such trend
same,reduction of plasma DHT compared to the untreated control,DHT,2.38 fold
same,physical abnormalities during treatment,liver tissue,no physical abnormalities
same,hair regrowth (coverage of the telogen area),[1],7.76%
same,telogen-to-anagen conversion (telogen area transitioning),[1],85.8%
same,telogen area,[1]; day 9,6.94%
same,anagen area,[1]; day 9,93.1%
same,hair regrowth,[1]; day 9,54.2%
same,hair regrowth,[1]; day 15,99.0%
same,increase in hair follicle length compared to the untreated group,[1]; day 15,3.00 fold
same,increase in hair weight compared to the untreated group,[1]; day 15,165%
same,hepatic Akr1c21 protein expression,Akr1c21,markedly upregulated
same,hepatic Dhrs9 protein expression,Dhrs9,markedly upregulated
Nc1cc(N2CCCCC2)nc(N)[n+]1[O-] [minoxidil],β-catenin expression in dorsal skin,β-catenin,significantly restored
same,Lef-1 expression in dorsal skin,Lef-1,positive trend
same,concentration above which cytotoxic effects (decreased cell viability) were seen,HaCaT keratinocytes,above 10 µg/mL
same,scratch wound closure,"HDP cells [2]; 0.1 µg/mL, 16 h",68.8%
same,scratch wound closure,"HDP cells [2]; 0.1 µg/mL, 20 h",77.7%
same,scratch wound closure,"HDP cells [2]; 0.1 µg/mL, 24 h",94.7%
same,scratch wound closure,"HDP cells [2]; 1 µg/mL, 16 h",49.2%
same,scratch wound closure,"HDP cells [2]; 25 µg/mL, 16 h",29.2%
same,concentration above which proliferation markedly declined,HDP cells [3],above 10 µg/mL
same,reduction of plasma DHT compared to the untreated control,DHT,no detectable effect
same,concentration at which proliferation decreased (dose-dependent cytotoxicity),[4],≥ 10000 ng/mL
same,increase in cell proliferation,[4]; 0.5 µg/mL,184%
same,increase in cell proliferation,[4]; 1 µg/mL,173%
same,proliferation at lower concentrations,[4]; 0.01–0.1 µg/mL,significantly enhanced proliferation
same,hair regrowth (coverage of the telogen area),[1],0.7%
same,telogen-to-anagen conversion (telogen area transitioning),[1],65.0%
same,anagen area,[1]; day 9,69.8%
same,hair regrowth,[1]; day 9,4.79%
same,hair regrowth,[1]; day 15,95.0%
same,increase in hair follicle length compared to the untreated group,[1]; day 15,2.24 fold
same,increase in hair weight compared to the untreated group,[1]; day 15,82.5%
same,hepatic Akr1c21 protein expression,Akr1c21,no significant effect
same,hepatic Dhrs9 protein expression,Dhrs9,no significant effect
